By EC50 is commonly meant the concentration needed to bring the measured effect to its halfway point.

Experimental findings from ChEMBL document CHEMBL3813623, “Novel approaches to map small molecule-target interactions” (Bioorg Med Chem, 2016) are described below.

The assay addresses T1, Bile acid receptor (Homo sapiens, UniProt Q96RI1).
T1 sequence (Q96RI1 whole entry): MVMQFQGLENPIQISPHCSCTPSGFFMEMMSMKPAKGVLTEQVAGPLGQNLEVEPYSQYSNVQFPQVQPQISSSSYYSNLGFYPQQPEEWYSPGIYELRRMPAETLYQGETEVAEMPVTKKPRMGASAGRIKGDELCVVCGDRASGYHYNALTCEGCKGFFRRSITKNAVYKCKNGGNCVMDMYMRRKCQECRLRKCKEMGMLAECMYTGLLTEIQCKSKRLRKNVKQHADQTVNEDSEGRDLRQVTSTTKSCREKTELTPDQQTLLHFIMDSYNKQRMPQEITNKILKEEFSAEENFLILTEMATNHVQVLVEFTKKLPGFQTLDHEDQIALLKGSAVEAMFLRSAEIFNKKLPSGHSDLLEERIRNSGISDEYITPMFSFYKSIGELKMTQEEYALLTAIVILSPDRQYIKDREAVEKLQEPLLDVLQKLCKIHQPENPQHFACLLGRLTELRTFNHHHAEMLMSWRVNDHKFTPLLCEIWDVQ
In words: Agonist activity at farnesoid x receptor(unknown origin).

Molecule `CNC(=O)O[C@@H](CC(C)C)c1nc([C@H]2OC(=O)/C(C)=C/C/C(C)=C/[C@@H](O)[C@@H](C)\C=C(C)/C=C(C)\C=C\[C@@H](O)[C@H](C)[C@H](OC)/C(C)=C/C=C/[C@@H]2C)cs1` [ARCHAZOLID A] returned an EC50 of 200 nM. That is a sub-micromolar value.
